This data set relates to Caco-2 monolayer, B->A permeability, LC-MS/MS. Description: Enhancers of SMN2 Splice Variant Expression: Caco-2 Permeability Profiling. Conditions: stronger effect = higher value. The text has this:
Spinal muscular atrophy (SMA) is caused by insufficient levels of the survival motor neuron protein SMN. The SMN locus on chromosome 5q13 contains two inverted copies of SMN called SMN1 and SMN2 which are 99% identical at the amino acid level. SMN1 is a fully functional protein and SMN2 skips exon 7 90% of the time. Skipping of exon 7 produces non-functional protein product. 10% of the SMN2 protein includes exon 7 and is fully functional. In the SMA disease state, mutations in the SMN1 locus are the cause of the disease state. Because only 10% of SMN2 is of the fully functional form, it is not sufficient to overcome the deficiency produced by the loss of the SMN1 product. A therapy that either increase the amount of SMN2 product made or to increase the inclusion of exon 7 has been proposed for the treatment of SMA. After screening and medicinal chemistry efforts a probe was identified and is further characterized in this in vitro ADME assay. This Caco-2 permeability assay predicts the in vivo absorption of the lead across the intestinal lining by using a Caco-2 cell line and measuring the lead's rate of transport […]. […] NIH Chemical Genomics Center [NCGC] NIH Molecular Libraries Probe Production centers Network [MLPCN] […]
1. […] The T0, LY and T90, LY plates are read by FlexStation 3 at excitation of 485 nm and emission of 535 nm to determine LY permeability. […]
On the technique in general: Caco-2 monolayers are a common model of the intestinal barrier.

`O=C(O)C1CCN(c2nc(-c3ccc(Br)cc3)cs2)CC1`: the Papp B->A is 12 10^-6 cm/s.

Source of the values: PubChem BioAssay AID504778 (National Center for Advancing Translational Sciences (NCATS), 2011).
